How the values were obtained:
Format in all cases: physicochemical
[1] = Stability study: material left open to air at room temperature and exposed to light for one month (HPLC, Karl Fischer); conditions: room temperature, exposed to light
Protocol: A stability study of birinapant form H was performed by leaving the material open to air at room temperature and exposed to light for one month. […] A stability study of birinapant form H was performed by leaving the material open to air at room temperature and exposed to light for one month.

[2] = Stability studies under elevated temperature and relative humidity; crystalline form by XRPD, birefringence by polarized light microscopy
Protocol: XRPD patterns were collected with a PANalytical Empyrean diffractometer using an incident beam of Cu radiation produced using a long, fine-focus source. An elliptically graded multilayer mirror was used to focus Cu Kα X-rays through the specimen and onto the detector. Prior to analysis, a silicon specimen (NIST SRM 640e) was analyzed to verify the observed position of the Si 111 peak is consistent with the NIST-certified position. A specimen of the sample was sandwiched between 3-μm-thick films and analyzed in transmission geometry. A beam-stop, short antiscatter extension, and antiscatter knife edge were used to minimize the background generated by air. Soller slits for the incident and diffracted beams were used to minimize broadening and asymmetry from axial divergence. Diffraction patterns were collected using a scanning position-sensitive detector (X′Celerator) located 240 mm from the specimen and Data Collector software v. 5.5. Additional stability studies under elevated temperature and relative humidity (RH) conditions were also performed. Samples of birinapant form H were subjected to various temperature and humidity conditions for up to 105 days, and samples were taken at 17, 33, and 105 days. For each sample the identity of the crystalline form of the sample was assessed using XRPD and the birefringence of the sample was assessed using polarized light microscopy. Additionally, XRPD patterns for several time points are provided for the 60° C. study, the 30° C./62% RH study, and the 40° C./75% RH study in FIGS. 6, 7, and 8, respectively. The time points shown are at the start of the study (top pattern), after 17 days (pattern second from top), after 33 days (pattern third from top), and after 105 days (bottom pattern). Additional stability studies under elevated temperature and relative humidity (RH) conditions were also performed. Samples of birinapant form H were subjected to various temperature and humidity conditions for up to 182 days, and samples were taken at […]. For each sample the identity of the crystalline form of the sample was assessed using XRPD and the birefringence of the sample was assessed using polarized light microscopy. The “RESULT” column indicates the form that was observed. Additionally, XRPD patterns for several time points are provided for the 60° C. study, the 30° C./62% RH study, and the 40° C./75% RH study in FIG. 9. The spectra shown in FIG. 9 correspond to the 60° C. study after 33 days (top trace), the 60° C. study after 182 days (trace second from top), the 30° C./62% RH study after 33 days (trace third from top), the 30° C./62% RH study after 182 days (trace fourth from top), the 40° C./75% RH study after 33 days (trace fifth from top), and the 40° C./75% RH study after 182 days (trace sixth from top). A representative XRPD trace for birinapant form H prior to stressing is also shown for comparison (bottom trace).

[3] = Dynamic vapor sorption (DVS) study; set-up: Hysteresis: unit not given here; conditions: 25° C.
Protocol: Automated vapor sorption (VS) data were collected on a Surface Measurement System DVS Intrinsic instrument. Samples were not dried prior to analysis. Sorption and desorption data were collected over a range from 5% to 95% RH at 10% RH increments under a nitrogen purge. The equilibrium criterion used for analysis was less than 0.0100% weight change in 5 minutes with a maximum equilibration time of 3 hours. Data were not corrected for the initial moisture content of the samples. This study was performed at a temperature of 25° C., and the relative humidity was cycled between about 5% and about 95%.

[4] = TGA study; conditions: between about 25° C. and 300° C.
Protocol: TGA analysis was performed using a Mettler-Toledo TGA/DSC3 analyzer. Temperature and enthalpy adjustments were performed using indium, tin, and zinc, and then verified with indium. The balance was verified with calcium oxalate. The sample was placed in an open aluminum pan. The pan was hermetically sealed, the lid pierced, and then inserted into the TG furnace. A weighed aluminum pan configured as the sample pan was placed on the reference platform. The furnace was heated under nitrogen. Each sample was heated from ambient temperature to 350° C. at 10° C./min. The thermograms were plotted by reference temperature (x-axis) and results were reported according to sample temperatures. Briefly, a sample of biripant Form H was heated from about 25° C. to about 400° C. […] Between about 340° C. and 400° C., weight loss was observed, corresponding to the thermal decomposition of birinapant.

[5] = Stability studies under elevated temperature and relative humidity; crystalline form by XRPD, birefringence by polarized light microscopy; remark: listed apart in the source
[6] = target RH 95.0%, sample RH 95.7%

- appearance of the surface of the solid [1]: discolored slightly
- purity of birinapant by HPLC after storage [1]: 99.9%
- Observation ([2]; 30° C., 62% RH, 17 d, B = birefringence): fines, B
- Observation ([2]; 30° C., 62% RH, 105 d, B = birefringence): white fines, B
- Observation ([2]; 40° C., 75% RH, 17 d, B = birefringence): fines, B
- Observation ([2]; 40° C., 75% RH, 33 d): white solids
- Observation ([2]; 40° C., 75% RH, 105 d, B = birefringence): white fines, B
- Observation ([2]; 60° C., 17 d, B = birefringence): fines, B
- Observation ([2]; 60° C., 33 d): white to off-white in color
- Observation ([2]; 60° C., 105 d): off-white
- Observation ([2]; 80° C., 17 d, B = birefringence): fines, B sample faint pale yellow
- Observation ([2]; 80° C., 33 d): pale yellow in color
- Observation ([2]; RT, 98% RH, 18 d, B = birefringence): fines, B sample faint pale yellow
- Observation ([2]; Table 5: 30° C., 62% RH, 17 d, B = birefringence): fines, B
- Observation ([2]; Table 5: 30° C., 62% RH, 105 d, B = birefringence): white fines, B
- Observation ([2]; Table 5: 30° C., 62% RH, 182 d, power outage 1 hour on day 125): white solids^d
- Observation ([2]; Table 5: 40° C., 75% RH, 17 d, B = birefringence): fines, B
- Observation ([2]; Table 5: 40° C., 75% RH, 33 d): white solids
- Observation ([2]; Table 5: 40° C., 75% RH, 105 d, B = birefringence): white fines, B
- Observation ([2]; Table 5: 40° C., 75% RH, 182 d, power outage 1 hour on day 125): white solids^e
- Observation ([2]; Table 5: 60° C., 17 d, B = birefringence): fines, B
- Observation ([2]; Table 5: 60° C., 33 d): white to off-white in color
- Observation ([2]; Table 5: 60° C., 105 d): off-white
- Observation ([2]; Table 5: 60° C., 182 d, temperature excursions: 105° C. 3 hours on day 113, power outage 1 hour on day 125): off-white to pale yellow^c
- Observation ([2]; Table 5: 80° C., 17 d, B = birefringence): fines, B sample faint pale yellow
- Observation ([2]; Table 5: 80° C., 33 d): pale yellow in color
- Observation ([2]; Table 5: RT, 53% RH, 18 d, B = birefringence): fines, B sample faint pale yellow
- Observation ([2]; Table 5: RT, 98% RH, 18 d, B = birefringence): fines, B sample faint pale yellow
- Cycle 1 Sorp Mass Change ([3]; target RH 5.0%, sample RH 5.1%): 0.000%
- Cycle 1 Desorp Mass Change ([3]; target RH 5.0%, sample RH 5.5%): 0.020%
- Hysteresis ([3]; target RH 15.0%): 0.192
- Cycle 1 Sorp Mass Change ([3]; target RH 15.0%, sample RH 15.6%): 0.365%
- Cycle 1 Desorp Mass Change ([3]; target RH 15.0%, sample RH 16.1%): 0.557%
- Hysteresis ([3]; target RH 25.0%): 0.197
- Cycle 1 Sorp Mass Change ([3]; target RH 25.0%, sample RH 25.1%): 0.732%
- Cycle 1 Desorp Mass Change ([3]; target RH 25.0%, sample RH 25.6%): 0.929%
- Hysteresis ([3]; target RH 35.0%): 0.237
- Cycle 1 Sorp Mass Change ([3]; target RH 35.0%, sample RH 34.7%): 1.001%
- Cycle 1 Desorp Mass Change ([3]; target RH 35.0%, sample RH 35.3%): 1.238%
- Hysteresis ([3]; target RH 45.0%): 0.308
- Cycle 1 Sorp Mass Change ([3]; target RH 45.0%, sample RH 45.0%): 1.224%
- Cycle 1 Desorp Mass Change ([3]; target RH 45.0%, sample RH 45.6%): 1.532%
- Hysteresis ([3]; target RH 55.0%): 0.379
- Cycle 1 Sorp Mass Change ([3]; target RH 55.0%, sample RH 54.7%): 1.436%
- Cycle 1 Desorp Mass Change ([3]; target RH 55.0%, sample RH 55.4%): 1.815%
- Hysteresis ([3]; target RH 65.0%): 0.425
- Cycle 1 Sorp Mass Change ([3]; target RH 65.0%, sample RH 64.7%): 1.652%
- Cycle 1 Desorp Mass Change ([3]; target RH 65.0%, sample RH 65.5%): 2.078%
- Hysteresis ([3]; target RH 75.0%): 0.428
- Cycle 1 Sorp Mass Change ([3]; target RH 75.0%, sample RH 74.7%): 1.908%
- Cycle 1 Desorp Mass Change ([3]; target RH 75.0%, sample RH 75.3%): 2.336%
- Hysteresis ([3]; target RH 85.0%): 0.347
- Cycle 1 Sorp Mass Change ([3]; target RH 85.0%, sample RH 84.9%): 2.263%
- Cycle 1 Desorp Mass Change ([3]; target RH 85.0%, sample RH 86.0%): 2.610%
- Cycle 1 Desorp Mass Change [3, 6]: 2.904%
- Cycle 1 Sorp Mass Change [3, 6]: 2.904%
- weight loss on heating (TGA) [4]: No weight loss
- Observation ([5]; 245° C., 1 hr): light tan solids
- Observation ([5]; RT, 53% RH, 18 d, B = birefringence): fines, B sample faint pale yellow
- Observation ([5]; Table 5: 245° C., 1 hr): light tan solids
Compound: CC[C@H](NC(=O)[C@H](C)NC)C(=O)N1C[C@@H](O)C[C@H]1Cc1c(-c2[nH]c3cc(F)ccc3c2C[C@@H]2C[C@H](O)CN2C(=O)[C@H](CC)NC(=O)[C@H](C)NC)[nH]c2cc(F)ccc12 [birinapant Form H, (2S,2'S)—N,N′-((2S,2'S)-((3S,3'S,5R,5′R)-((6,6′-difluoro-1H,1′H-[2,2′-biindole]-3,3′-diyl)bis(methylene))bis(3-hydroxypyrrolidine-5,1-diyl))bis(1-oxobutane-1,2-diyl))bis(2-(methylamino)propanamide)]

Source: US20250304635A1, “BIRINAPANT POLYMORPH H” (Medivir AB, priority 2022, published 2025)
